Source: patent US20020026053A1, “Novel 3-(substituted) -2- indolinones compounds and use thereof as inhibitors of protein kinase activity” (priority 1997, published 2002)

Target: T1, Met receptor (EGFR/Met chimeric cells, EMR) (Homo sapiens, UniProt P08581)
T1 construct: expressed in transfected cells; the other entry of the earlier key: EGFR (P00533, Epidermal growth factor receptor)
Assay: Met Autophosphorylation Assay
Type: biochemical
Procedure, shortened: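 Transiently transfected EGFR/Met chimeric (EMR) cells were lysed in HNTG with 1 mM PMSF. Met was captured on plates coated with goat anti-rabbit IgG, then rabbit anti-Met (C-28), using 90 μg lysate/100 μl for 60 min at room temperature. Phosphotyrosine was read by ELISA.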

T1 sequence (P08581 with tags, fused parts or gaps): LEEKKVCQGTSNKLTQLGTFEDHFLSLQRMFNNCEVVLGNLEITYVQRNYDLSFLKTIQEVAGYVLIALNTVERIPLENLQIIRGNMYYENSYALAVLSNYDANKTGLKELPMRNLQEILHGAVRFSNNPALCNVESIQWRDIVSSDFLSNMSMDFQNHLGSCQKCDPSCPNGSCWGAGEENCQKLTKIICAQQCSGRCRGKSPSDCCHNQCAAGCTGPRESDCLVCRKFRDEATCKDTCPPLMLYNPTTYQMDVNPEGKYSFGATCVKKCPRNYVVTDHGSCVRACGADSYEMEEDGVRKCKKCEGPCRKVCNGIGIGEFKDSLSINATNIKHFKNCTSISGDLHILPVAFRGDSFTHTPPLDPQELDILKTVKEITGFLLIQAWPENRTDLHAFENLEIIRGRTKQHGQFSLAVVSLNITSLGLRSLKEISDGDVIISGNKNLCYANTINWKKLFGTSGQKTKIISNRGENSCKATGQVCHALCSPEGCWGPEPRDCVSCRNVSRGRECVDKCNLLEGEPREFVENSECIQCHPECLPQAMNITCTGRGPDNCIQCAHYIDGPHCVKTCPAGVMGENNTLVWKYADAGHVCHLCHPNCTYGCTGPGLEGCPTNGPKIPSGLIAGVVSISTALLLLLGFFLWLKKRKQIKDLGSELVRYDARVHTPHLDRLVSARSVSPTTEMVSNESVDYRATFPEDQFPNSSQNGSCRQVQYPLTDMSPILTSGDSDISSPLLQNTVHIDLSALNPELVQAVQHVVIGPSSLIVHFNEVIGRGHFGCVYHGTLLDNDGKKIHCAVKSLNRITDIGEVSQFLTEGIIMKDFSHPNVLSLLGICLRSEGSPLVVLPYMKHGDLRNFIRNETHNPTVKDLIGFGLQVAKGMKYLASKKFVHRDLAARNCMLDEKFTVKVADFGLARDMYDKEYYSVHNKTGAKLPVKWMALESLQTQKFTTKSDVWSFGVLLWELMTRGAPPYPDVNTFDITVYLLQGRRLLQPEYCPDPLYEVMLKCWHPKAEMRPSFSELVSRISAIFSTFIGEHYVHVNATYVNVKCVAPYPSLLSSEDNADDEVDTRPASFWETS

Cc1c(Br)cc(Br)c2c1C(=Cc1ccc([N+](=O)[O-])c(O)c1)C(=O)N2 [10724/H04]
Met Kinase % Inhibition (P.130): 69.3%
